According to patent US9163015B2, “Pyrazolopyridine, pyrarolopyrazine, pyrazolopyrimidine, pyrazolothiophene and pyrazolothiazole compounds as MGLUR4 allosteric potentiators, compositions, and methods of treating neurological dysfunction” (Vanderbilt University, priority 2010, dated 2015):

Molecular target: human mGluR4 (Homo sapiens (Human), UniProt Q14833)
Experiment: mGluR4 potentiation assay, CHO cells transfected with human mGluR4, Ca2+-sensitive fluorescent dye, EC20 agonist
Assay type: cell-based
Conditions: potentiation of mGluR4; table does not state human or rat receptor
Procedure: The disclosed compounds and compositions can be evaluated for their ability to act as a potentiator of metabotropic glutamate receptor activity, in particular mGluR4 activity, by any suitable known methodology known in the art. For example, Chinese Hamster Ovary (CHO) cells transfected with human mGluR4 or HEK cells co-transfected with rat mGluR4 and the G-protein regulated Inwardly Rectifying Potassium channel (GIRK) were plated in clear bottom assay plates for assay in a Hamamatsu FDSS Fluorometric Plate Reader. The cells were loaded with either a Ca2+-sensitive fluorescent dye or the thallium responsive dye and the plates were washed and placed into a suitable kinetic plate reader. For human mGluR4 assays, a fluorescence baseline was established for 3-5 seconds, the disclosed compounds were then added to the cells, and the response in cells was measured. Approximately two and a half minutes later, a concentration of mGluR4 orthosteric agonist (e.g. glutamate or L-AP4) eliciting approximately 20% (EC20) of the maximal agonist response was added to the cells, and the response was measured. Two minutes later, a concentration of mGluR4 agonist (e.g. glutamate or L-AP4) eliciting 80% (EC80) of the maximal agonist response was added to the cells, and the response was measured. For rat mGluR4/GIRK experiments, a baseline was established for approximately five seconds, disclosed compounds were added, and either an EC20 or EC80 concentration of agonist was added approximately two and one half minutes later.
The above described assay operated in two modes. In the first mode, a range of concentrations of the disclosed compounds are added to cells, followed by a single fixed concentration of agonist. If the compound acts as a potentiatior, an EC50 value for potentiation and a maximum extent of potentiation by the compound at this concentration of agonist is determined by non-linear curve fitting. If the compound acts as a noncompetitive antagonist, an IC50 value is determined by non-linear curve fitting. In the second mode, several fixed concentrations of the disclosed compounds are added to various wells on a plate, followed by a range in concentrations of agonist for each concentration of disclosed compound. The EC50 values for the agonist at each concentration of compound are determined by non-linear curve fitting. A decrease in the EC50 value of the agonist with increasing concentrations of the sample compound (a leftward shift of the agonist concentration-response curve) is an indication of the degree of mGluR4 potentiation at a given concentration of the sample compound. A decrease in the maximal response of the agonist with increasing concentrations of the sample compounds, with or without a rightward shift in agonist potency, is an indication of the degree of noncompetitive antagonism at mGluR4. The second mode also indicates whether the sample compounds also affect the maximum response to mGluR4 to agonists.

Chain of human mGluR4 (Q14833 33-912): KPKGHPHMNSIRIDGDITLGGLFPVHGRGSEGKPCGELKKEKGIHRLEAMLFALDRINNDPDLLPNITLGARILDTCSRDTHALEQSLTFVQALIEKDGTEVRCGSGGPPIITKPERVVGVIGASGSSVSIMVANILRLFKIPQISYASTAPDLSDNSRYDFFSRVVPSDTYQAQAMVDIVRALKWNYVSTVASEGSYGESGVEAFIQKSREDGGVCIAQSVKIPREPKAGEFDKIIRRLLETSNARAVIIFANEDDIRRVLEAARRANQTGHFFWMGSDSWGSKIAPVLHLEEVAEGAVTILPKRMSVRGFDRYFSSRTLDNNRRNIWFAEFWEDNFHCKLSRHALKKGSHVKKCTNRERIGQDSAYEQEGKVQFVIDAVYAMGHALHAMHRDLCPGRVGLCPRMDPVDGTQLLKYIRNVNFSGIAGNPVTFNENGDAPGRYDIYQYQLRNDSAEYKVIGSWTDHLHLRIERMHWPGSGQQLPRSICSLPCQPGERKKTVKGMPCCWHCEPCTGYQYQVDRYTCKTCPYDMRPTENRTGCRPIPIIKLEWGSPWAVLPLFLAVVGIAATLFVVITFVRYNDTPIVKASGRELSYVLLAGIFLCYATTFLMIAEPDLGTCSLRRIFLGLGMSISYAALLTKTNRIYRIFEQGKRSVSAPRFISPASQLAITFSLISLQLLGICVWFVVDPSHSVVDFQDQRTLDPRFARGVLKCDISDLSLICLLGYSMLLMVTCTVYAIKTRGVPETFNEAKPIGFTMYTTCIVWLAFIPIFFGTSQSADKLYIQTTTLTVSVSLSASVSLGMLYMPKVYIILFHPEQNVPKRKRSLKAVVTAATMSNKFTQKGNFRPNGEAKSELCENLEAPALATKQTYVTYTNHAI

SMILES | EC50
CC(C)C1CCC(Nc2n[nH]c3cccnc23)CC1 (centres unmarked) [Example 29, N-(4-isopropylcyclohexyl)-1H-pyrazolo[4,3-b]pyridin-3-amine] | 5.22 µM
CN1C(=O)COc2ccc(Nc3n[nH]c4cccnc34)cc21 [Example 55, 6-((1H-pyrazolo[4,3-b]pyridin-3-yl)amino)-4-methyl-2H-benzo[b][1,4]oxazin-3(4H)-one] | 8.14 µM
